Reference: BindingDB's records for doi:10.1016/j.chembiol.2003.08.010 (Brigham and Women's Hospital, 2003)

molecular target: T1, Ubiquitin carboxyl-terminal hydrolase isozyme L1 (Mus musculus, UniProt Q9R0P9); test: Inhibition Activity Assay; conditions: pH 7.6; 25 °C
T1 sequence (Q9R0P9 whole entry): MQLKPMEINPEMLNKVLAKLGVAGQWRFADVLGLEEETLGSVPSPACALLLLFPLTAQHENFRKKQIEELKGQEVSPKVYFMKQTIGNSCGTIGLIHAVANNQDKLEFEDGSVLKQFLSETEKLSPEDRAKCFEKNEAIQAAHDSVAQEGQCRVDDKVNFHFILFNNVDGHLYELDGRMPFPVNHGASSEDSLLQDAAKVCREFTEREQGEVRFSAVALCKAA
Text: (§1) Inhibition activity and selectivity for UCH-L1 and UCH-L3.

SMILES	IC50 [µM]
CC(C)(C)OC(=O)[C@H](Cc1ccccc1)NC(=O)c1[nH]cnc1C(=O)Nc1cccc(Cl)c1	17
COC(=O)[C@H]1[C@H](CCc2ccccc2)NC(=O)N(Cc2ccccc2)[C@@H]1C	51
CN1CCN(C2Cc3ccc(Cl)cc3Sc3ccc(F)cc32)CC1 (configuration not stated)	321
Cc1ccccc1C(=O)Nc1scc(-c2ccc(Br)cc2)c1C(=O)O	6
O=C1C=CC([N+](=O)[O-])=CC1/C=N/NC(=O)C(O)(c1ccccc1)c1ccccc1 (configuration not stated)	9.5
COc1ccc(N=Nc2cc(-c3ccccc3)ccc2O)cc1	12
CCCCn1c(=O)c(C(=O)NCc2ccccc2)c(O)c2ccccc21	6.1
Cc1ccc(C(=O)NC(=S)NNC(=O)c2cccc([N+](=O)[O-])c2)cc1	36
CCCOc1ccc(/C=C/c2c([N+](=O)[O-])c(=O)n(C)c(=O)n2C)cc1 [1,3-dimethyl-5-nitro-6-[(E)-2-(4-propoxyphenyl)vinyl]pyrimidine-2,4-quinone]	0.81
COc1cccc(NC(=O)Nc2nc(SC(C)(C)C)ns2)c1 [1-(3-tert-butylsulfanyl-1,2,4-thiadiazol-5-yl)-3-(3-methoxyphenyl)urea]	16
CCSc1nsc(NC(=O)Nc2cccc(F)c2)n1 [1-[3-(ethylthio)-1,2,4-thiadiazol-5-yl]-3-(3-fluorophenyl)urea]	16
Cc1cc(Cl)c2oc(C(=O)N3CCC(O)(c4ccccc4)CC3)c(C)c2c1 [1-[(7-chloro-3,5-dimethyl-1-benzofuran-2-yl)carbonyl]-4-phenylpiperidin-4-ol]	1.2
NC(=S)NN=Cc1ccc(C23CC4CC(CC(C4)C2)C3)cc1 [1-[[4-(1-adamantyl)phenyl]methylideneamino]thiourea]	52
CCCCn1c(=O)c(C(=O)NCCc2ccccc2)c(O)c2ccccc21 [1-butyl-2-oxidanyl-4-oxidanylidene-N-(2-phenylethyl)quinoline-3-carboxamide]	12
Cc1ccc(-c2cc(-c3ccccc3)nc(N(C)N)n2)cc1 [1-methyl-1-[4-(4-methylphenyl)-6-phenylpyrimidin-2-yl]hydrazine]	4.1
COc1ccc2nc(C3CCCCC3)nc(C3CCCCC3)c2c1 [2,4-Dicyclohexyl-6-methoxy-quinazoline]	126
Cc1cccc(OCC(=O)Nc2ccncc2)c1 [2-(3-methylphenoxy)-N-pyridin-4-yl-ethanamide]	36
CCN(CC)c1nc(Nc2ccc([N+](=O)[O-])cc2)nc(N(CC)CC)n1 [2-N,2-N,4-N,4-N-tetraethyl-6-N-(4-nitrophenyl)-1,3,5-triazine-2,4,6-triamine]	2.9
Cc1ccc(Cn2c(C(CO)Nc3nc(-c4ccc(F)cc4)cs3)nc3ccccc32)cc1 (configuration not stated) [2-[4-(4-Fluoro-phenyl)-thiazol-2-ylamino]-2-[1-(4-methyl-benzyl)-1H-benzoimidazol-2-yl]-ethanol]	8.8
CCOC(=O)C1=C(C)N=c2sc(=Cc3ccc(OCC(=O)O)c(OC)c3)c(=O)n2C1c1ccc(Cl)cc1 (configuration not stated) [2-[4-[[6-carbethoxy-5-(4-chlorophenyl)-3-keto-7-methyl-5H-thiazolo[3,2-a]pyrimidin-2-ylidene]methyl]-2-methoxy-phenoxy]acetic acid]	43
COc1ccccc1-c1cc(-c2ccccc2)nc(SCC(=O)O)c1C#N [2-[[3-cyano-4-(2-methoxyphenyl)-6-phenyl-2-pyridinyl]thio]acetic acid]	0.94

SMILES	IC50 [µM]
O=[N+]([O-])c1c(Nc2cccc(O)c2)cc(Cl)c2nonc12 [3-[(7-chloro-4-nitro-benzofurazan-5-yl)amino]phenol]	> 100
Cc1cccc(C(=O)Nc2scc(-c3ccc(Br)cc3)c2C(=O)O)c1 [4-(4-bromophenyl)-2-[(3-methylphenyl)carbonylamino]thiophene-3-carboxylic acid]	6.2
O=C(Nc1scc(-c2ccc(Br)cc2)c1C(=O)O)c1ccccc1F [4-(4-bromophenyl)-2-[[(2-fluorophenyl)-oxomethyl]amino]-3-thiophenecarboxylic acid]	12
c1ccc(-c2nc(C3CCCCC3)c3ccccc3n2)cc1 [4-Cyclohexyl-2-phenyl-quinazoline]	75
CC(=NNC(=O)c1ccc(C)cc1)c1c(C)[nH]n(-c2ccccc2)c1=O [4-Methyl-benzoic acid N'-[1-(3-methyl-5-oxo-1-phenyl-1,5-dihydro-pyrazol-4-ylidene)-ethyl]-hydrazide]	95
CC(C)c1ccc(C=Nn2c(-c3ccccc3)n[nH]c2=S)cc1 [4-[(4-Isopropyl-benzylidene)-amino]-5-phenyl-4H-[1,2,4]triazole-3-thiol]	13
Brc1cc(-c2ccccc2)nc(-c2ccccc2)n1 [4-bromo-2,6-diphenyl-pyrimidine]	13
O=C1C=C(N2CCCCC2)c2ccccc2C1=O [4-piperidin-1-ylnaphthalene-1,2-dione]	78
CC(C)=CCc1cc([C@@H]2COc3c(ccc4c3C=CC(C)(C)O4)C2)c(O)cc1O [5'-prenyl-glabridin]	6.1
CC1(C)CC(=O)C(C2C3=C(CC(C)(C)CC3=O)Oc3c(Br)cc(Br)cc32)C(=O)C1 (configuration not stated) [5,7-bis(bromanyl)-9-(4,4-dimethyl-2-oxidanyl-6-oxidanylidene-cyclohexen-1-yl)-3,3-dimethyl-4,9-dihydro-2H-xanthen-1-one]	12
Cc1nc(N=NCc2ccc3c(c2)OCO3)sc1C [(4,5-dimethylthiazol-2-yl)-(piperonylideneamino)amine]	5.8
COc1cccc(CN=Nc2cc(N3CCOCC3)ncn2)c1O [(6E)-2-methoxy-6-[[N'-(6-morpholinopyrimidin-4-yl)hydrazino]methylene]cyclohexa-2,4-dien-1-one]	6.1
CCOc1ccc(CN=Nc2cc(N3CCOCC3)nc(C)n2)c(O)c1 [(6E)-3-ethoxy-6-[[2-(2-methyl-6-morpholin-4-yl-pyrimidin-4-yl)hydrazinyl]methylidene]cyclohexa-2,4-dien-1-one]	19
O[C@@H]1CCCN2CCc3c([nH]c4ccccc34)[C@H]12 [MLS000728593]	3.4
O=C1C([N+](=O)[O-])=CC(Cl)=CC1/C=N/NC(=O)C(O)(c1ccccc1)c1ccccc1 (configuration not stated) [N''''-[(E)-(3-chloro-5-nitro-6-oxocyclohexa-2,4-dien-1-ylidene)methyl]-2-hydroxy-2,2-diphenylacetohydrazide]	16
O=C(NC12CC3CC(CC(C3)C1)C2)c1ccc([N+](=O)[O-])o1 [N-(1-adamantyl)-5-nitrofuran-2-carboxamide]	6.5
COc1cc(OC)c([C@H]2C=C(C)[C@H]3C[C@@H]2C3(C)C)c(OC)c1 [SMR000475707]	80
Cc1c(Cl)cccc1-c1ccc(CNCc2ccccn2)o1 [[5-(3-Chloro-2-methyl-phenyl)-furan-2-ylmethyl]-pyridin-2-ylmethyl-amine]	> 100
CC1Oc2cc3oc4c(O)c5c(cc4c(=O)c3c(O)c2C1(C)C)C=CC(C)(C)O5 (configuration not stated) [gerontoxanthone A]	4.1
CC1Oc2cc3oc4c(O)c(O)ccc4c(=O)c3c(O)c2C1(C)C (configuration not stated) [toxyloxanthone C]	3.4

Now from value to compound:

IC50 [µM]	SMILES
8.8	CC(C)=CCOc1ccc([C@@H]2COc3c(ccc4c3C=CC(C)(C)O4)C2)c(O)c1 [MLS000697599]
1.3	Cc1ccc(OCCCCc2c(C)n[nH]c2C)cc1 [MLS001001654]
2.7	CC(C)NC(=S)NC(c1ccccc1)(c1ccccc1)c1ccccc1 [MLS001008525]
114	COc1ccc(CC2=CC(=O)c3ccccc3C2=O)cc1 [MLS001163415]
> 100	COc1ccc(Nc2nc(NN)nc(Nc3ccc(OC)cc3)n2)cc1 [MLS001185433]
50	CC[n+]1c(/C=C/N(C)c2ccccc2)n(-c2ccccc2)c2ccc(-c3nc4ccccc4s3)cc21 [MLS001207496]
15	CC(C)(C)c1ccc(O)c(N=Cc2c(O)ccc3ccccc23)c1 [MLS001211069]
18	COc1cc(/C=C2/SC(=S)N(Cc3ccccc3)C2=O)ccc1O [MLS001211321]
12	CC(C)=CCc1c2c(c(O)c3c(=O)c4c(oc13)-c1cc(O)c(O)cc1OC4C=C(C)C)C=CC(C)(C)O2 (configuration not stated) [SMR000470928]
1.8	C=CC(C)(C)c1c(O)c(CC=C(C)C)c(O)c2c(=O)c3ccc(O)c(O)c3oc12 [SMR000470960]
45	COc1cc(C)c(C(=O)CC(=O)c2c(C)cc(OC)cc2C)c(C)c1 [SMR000475659]
22	COc1ccc(-c2csc(NC(=O)c3ccc(C(C)(C)C)cc3)c2C(=O)O)cc1 [SMR000475974]
21	COc1cccc(C(=O)Oc2ccc(CN=Nc3ccc(C(=O)O)cc3)cc2OC)c1 [SMR000502791]
14	Oc1c(Br)cc(Br)cc1CNc1cccc2cccnc12 [SMR000503121]
19	Cc1ccc(OCCn2c(S)nc3ccccc32)c(C(C)C)c1 [SMR000515074]
4.1	Clc1cccc(Cl)c1C1Nc2cccc3cccc(c23)N1 [SMR000515760]
12	CCCc1cc(=O)n2[nH]c(C)c(-c3ccc(Cl)cc3)c2n1 [SMR000518792]

molecular target: T2, Ubiquitin carboxyl-terminal hydrolase isozyme L3 (Mus musculus, UniProt Q9JKB1); test: Inhibition Activity Assay; conditions: pH 7.6; 25 °C
T2 sequence (Q9JKB1 whole entry): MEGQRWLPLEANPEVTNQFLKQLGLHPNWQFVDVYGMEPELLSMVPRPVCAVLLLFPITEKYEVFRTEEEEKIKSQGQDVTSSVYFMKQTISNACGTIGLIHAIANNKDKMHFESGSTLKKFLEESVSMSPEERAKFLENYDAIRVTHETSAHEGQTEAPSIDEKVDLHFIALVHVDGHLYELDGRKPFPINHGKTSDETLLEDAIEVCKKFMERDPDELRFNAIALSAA
Text: as §1

IC50 [µM]	SMILES
116	COC(=O)[C@H]1[C@H](CCc2ccccc2)NC(=O)N(Cc2ccccc2)[C@@H]1C
32	Cc1ccccc1C(=O)Nc1scc(-c2ccc(Br)cc2)c1C(=O)O
17	CCCOc1ccc(/C=C/c2c([N+](=O)[O-])c(=O)n(C)c(=O)n2C)cc1 [1,3-dimethyl-5-nitro-6-[(E)-2-(4-propoxyphenyl)vinyl]pyrimidine-2,4-quinone]
25	Cc1cc(Cl)c2oc(C(=O)N3CCC(O)(c4ccccc4)CC3)c(C)c2c1 [1-[(7-chloro-3,5-dimethyl-1-benzofuran-2-yl)carbonyl]-4-phenylpiperidin-4-ol]
113	Cc1ccc(-c2cc(-c3ccccc3)nc(N(C)N)n2)cc1 [1-methyl-1-[4-(4-methylphenyl)-6-phenylpyrimidin-2-yl]hydrazine]
47	COc1ccc2nc(C3CCCCC3)nc(C3CCCCC3)c2c1 [2,4-Dicyclohexyl-6-methoxy-quinazoline]
18	CCN(CC)c1nc(Nc2ccc([N+](=O)[O-])cc2)nc(N(CC)CC)n1 [2-N,2-N,4-N,4-N-tetraethyl-6-N-(4-nitrophenyl)-1,3,5-triazine-2,4,6-triamine]
23	COc1ccccc1-c1cc(-c2ccccc2)nc(SCC(=O)O)c1C#N [2-[[3-cyano-4-(2-methoxyphenyl)-6-phenyl-2-pyridinyl]thio]acetic acid]
0.6	c1ccc(-c2nc(C3CCCCC3)c3ccccc3n2)cc1 [4-Cyclohexyl-2-phenyl-quinazoline]
